This assay concerns the target MOR (Homo sapiens, UniProt P35372). Put plainly: cell-based. Details: expressed in transfected cells; host or cells: CHO-K1/MOR/Ga15 cells. Particulars: for FLIPR Ca2+ AUC: area under the [Ca2+]i fluorescence response curve, up to 90 s. As to the method:
In an exemplary in vitro assay for identifying MOR agonists, cells that express a MOR are treated with a test compound in a cellular calcium fluorescent assay and calcium fluorescence intensity is then measured to determine whether the MOR is activated. A test compound is identified as a MOR agonist if the MOR is activated.
EC50 herein refers to the concentration of a compound that induces a response halfway between the baseline and the maximum after a specified exposure time. AUC refers to the area under the response curve, an indication of the compound's capability of activating a MOR.
One day before the assay, CORNING® black with clear flat bottom 96-well assay plates were coated with a 0.1 mg/mL Poly-L-Lysine solution. CHO-K1/MOR/Ga15 cells were suspended in the F12 medium and plated at a density of about 8×10^4 cells/well in […] medium. Cells were incubated in a humidified atmosphere of 10% CO2 at 37° C. overnight so as to reach an 80-90% confluent cell monolayer before the assay. On the day of the assay, 150 μL medium/well was removed from plate. […] Compounds and other reagents were dissolved in the assay buffer. […] The [Ca^2+]i fluorescence was measured up to 90 s after agonist injection.

Where [1] appears, read: CHO-K1/MOR/Ga15 cells, read-out: FLIPR Ca2+ EC50.

Where two headings read alike, the source gives them in different places.

What is called EC50 is the concentration at which the effect is half-maximal.

Chain of MOR (P35372 whole entry): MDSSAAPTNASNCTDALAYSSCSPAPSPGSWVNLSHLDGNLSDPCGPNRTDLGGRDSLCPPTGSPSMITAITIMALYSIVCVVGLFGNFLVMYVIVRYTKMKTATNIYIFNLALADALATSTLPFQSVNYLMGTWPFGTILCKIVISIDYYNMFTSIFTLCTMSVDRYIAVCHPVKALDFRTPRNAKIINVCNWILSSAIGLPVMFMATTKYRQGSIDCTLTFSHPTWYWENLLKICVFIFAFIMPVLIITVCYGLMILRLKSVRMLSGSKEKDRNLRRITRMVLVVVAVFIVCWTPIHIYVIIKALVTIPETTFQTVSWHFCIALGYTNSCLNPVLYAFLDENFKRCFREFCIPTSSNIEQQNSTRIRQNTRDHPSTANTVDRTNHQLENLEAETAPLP

On to `O=C(NCC1NCCc2ccccc21)C1CCCCC1` (centres unmarked) [Compound 5, N-(1,2,3,4-Tetrahydro-1-isoquinolinylmethyl)cyclohexanecarboxamide], for which the “FLIPR Ca2+ AUC” value was found to be 6142. Moreover, the half-maximal effective concentration (EC50) under setting [1] was 6.38 µM.
In the case of `O=C(NCC1c2ccccc2CCN1S(=O)(=O)c1ccc(Br)cc1OC(F)(F)F)C1CCCCC1` (centres unmarked) [Compound 6, N-[(2-{[4-Bromo-2-(trifluoromethoxy)phenyl]sulfonyl}-1,2,3,4-tetrahydro-1-isoquinolinyl)methyl]cyclohexanecarboxamide], the “FLIPR Ca2+ AUC” value was 15139. For the same compound, the EC50 under setting [1] amounted to 1.12 µM.
Taken in the same sequence, the figures for `O=C(NCC1c2ccccc2CCN1S(=O)(=O)c1ccc(Br)cc1C(F)(F)F)C1CCCCC1` (centres unmarked) [Compound 7, N-[(2-{[4-Bromo-2-(trifluoromethyl)phenyl]sulfonyl}-1,2,3,4-tetrahydro-1-isoquinolinyl)methyl]cyclohexanecarboxamide] were 7697 and 2.56 µM.
Consider `Cc1cc(Br)ccc1S(=O)(=O)N1CCc2ccccc2C1CNC(=O)C1CCCCC1` (centres unmarked) [Compound 8, N-({2-[(4-Bromo-2-methylphenyl)sulfonyl]-1,2,3,4-tetrahydro-1-isoquinolinyl}methyl)cyclohexanecarboxamide], for which the “FLIPR Ca2+ AUC” value was 3757. Besides, the half-maximal effective concentration (EC50) under setting [1] is below 10 µM. Further, the EC50 (FLIPR Ca2+ EC50, CHO-K1/MOR/Ga15 cells) is 6.27 µM.
As to `O=C(NCC1c2ccccc2CCN1S(=O)(=O)c1ccc(Br)cc1)C1CCCCC1` (centres unmarked) [Compound 9, N-({2-[(4-Bromophenyl)sulfonyl]-1,2,3,4-tetrahydro-1-isoquinolinyl}methyl)cyclohexanecarboxamide], the “FLIPR Ca2+ AUC” value was found to be 6103. Besides, the concentration for a half-maximal effect (EC50) under setting [1] turned out to be 8.82 µM.
For `O=C(NCC1c2ccccc2CCN1S(=O)(=O)c1ccc(Br)cc1Br)C1CCCCC1` (centres unmarked) [Compound 10, N-({2-[(2,4-Dibromophenyl)sulfonyl]-1,2,3,4-tetrahydro-1-isoquinolinyl}methyl)cyclohexanecarboxamide], the “FLIPR Ca2+ AUC” value is recorded as 7023. Moreover, the concentration for a half-maximal effect (EC50) under setting [1] came to 3.31 µM.
Consider `O=C(NCC1c2ccccc2CCN1S(=O)(=O)c1ccc(Br)cc1Cl)C1CCCCC1` (centres unmarked) [Compound 11, N-({2-[(4-Bromo-2-chlorophenyl)sulfonyl]-1,2,3,4-tetrahydro-1-isoquinolinyl}methyl)cyclohexanecarboxamide], for which the EC50 came out at 5.61 µM and the “FLIPR Ca2+ AUC” value is given as 7597.
On to `O=C(NCC1c2ccccc2CCN1S(=O)(=O)c1ccc(Br)cc1F)C1CCCCC1` (centres unmarked) [Compound 12, N-({2-[ (4-Bromo-2-fluorophenyl)sulfonyl]-1,2,3,4-tetrahydro-1-isoquinolinyl}methyl)cyclohexanecarboxamide], for which the “FLIPR Ca2+ AUC” value was 7271. Besides, the EC50 under setting [1] was determined as 9.61 µM.
Taken in the same sequence, the figures for `O=C(NCC1c2ccccc2CCN1S(=O)(=O)c1ccccc1OC(F)(F)F)C1CCCCC1` (centres unmarked) [Compound 13, N-[(2-{[2-(Trifluoromethoxy)phenyl]sulfonyl}-1,2,3,4-tetrahydro-1-isoquinolinyl)methyl]cyclohexanecarboxamide] were 5152 and 3.31 µM.
As to `COc1ccccc1S(=O)(=O)N1CCc2ccccc2C1CNC(=O)C1CCCCC1` (centres unmarked) [Compound 14, N-({2-[(2-Methoxyphenyl)sulfonyl]-1,2,3,4-tetrahydro-1-isoquinolinyl}methyl)cyclohexanecarboxamide], the “FLIPR Ca2+ AUC” value came to 3327. The EC50 under setting [1] turned out to be 22.5 µM.
Taken in the same sequence, the figures for `O=C(NCC1c2ccccc2CCN1S(=O)(=O)c1ccc(F)cc1C(F)(F)F)C1CCCCC1` (centres unmarked) [Compound 15, N-[(2-{[4-Fluoro-2-(trifluoromethyl)phenyl]sulfonyl}-1,2,3,4-tetrahydro-1-isoquinolinyl)methyl]cyclohexanecarboxamide] were 5153 and 5.88 µM.
For `Cc1cc(F)ccc1S(=O)(=O)N1CCc2ccccc2C1CNC(=O)C1CCCCC1` (centres unmarked) [Compound 16, N-({2-[(4-Fluoro-2-methylphenyl)sulfonyl]-1,2,3,4-tetrahydro-1-isoquinolinyl}methyl)cyclohexanecarboxamide], in that order: 6213 and 10 µM.
For the compound `O=C(NCC1c2ccccc2CCN1S(=O)(=O)c1ccc(Cl)cc1)C1CCCCC1` (centres unmarked) [Compound 17, N-({2-[(4-Chlorophenyl)sulfonyl]-1,2,3,4-tetrahydro-1-isoquinolinyl}methyl)cyclohexanecarboxamide], a half-maximal response (EC50) required 5.97 µM and the “FLIPR Ca2+ AUC” value was 6144.
For `Cc1ccc(S(=O)(=O)N2CCc3ccccc3C2CNC(=O)C2CCCCC2)cc1` (centres unmarked) [Compound 18, N-({2-[(4-Methylphenyl)sulfonyl]-1,2,3,4-tetrahydro-1-isoquinolinyl}methyl)cyclohexanecarboxamide], in that order: 6.44 µM and 6808.
As to `COc1ccc(S(=O)(=O)N2CCc3ccccc3C2CNC(=O)C2CCCCC2)cc1` (centres unmarked) [Compound 19, N-({2-[(4-Methoxyphenyl)sulfonyl]-1,2,3,4-tetrahydro-1-isoquinolinyl}methyl)cyclohexanecarboxamide], the “FLIPR Ca2+ AUC” value is on record as 3418. Further, under setting [1], the concentration for a half-maximal effect (EC50) worked out at 7.84 µM.
As to `CC1CCC(C(=O)NCC2c3ccccc3CCN2S(=O)(=O)c2ccc(Br)cc2OC(F)(F)F)CC1` (centres unmarked) [Compound 20, N-[(2-{[4-Bromo-2-(trifluoromethoxy)phenyl]sulfonyl}-1,2,3,4-tetrahydro-1-isoquinolinyl)methyl]-4-methylcyclohexanecarboxamide], the EC50 under setting [1] was 0.97 µM.
On the same count and under the same terms, then `O=C(NCC1c2ccccc2CCN1S(=O)(=O)c1ccc(Br)cc1OC(F)(F)F)C1CCCC1` (centres unmarked) [Compound 21, N-[(2-{[4-Bromo-2-(trifluoromethoxy)phenyl]sulfonyl}-1,2,3,4-tetrahydro-1-isoquinolinyl)methyl]cyclopentanecarboxamide], with 0.81 µM.
Regarding `O=C(NCC1c2ccccc2CCN1S(=O)(=O)c1ccc(Br)cc1OC(F)(F)F)c1ccccc1` (centres unmarked) [Compound 24, N-[(2-{[4-Bromo-2-(trifluoromethoxy)phenyl]sulfonyl}-1,2,3,4-tetrahydro-1-isoquinolinyl)methyl]benzamide], the “FLIPR Ca2+ AUC” value was 9294. The EC50 under setting [1] came to 5.62 µM.
With `O=C(NCC1c2ccccc2CCN1S(=O)(=O)c1ccc(Br)cc1OC(F)(F)F)N1CCCCC1` (centres unmarked) [Compound 25, N-[(2-{[4-Bromo-2-(trifluoromethoxy)phenyl]sulfonyl}-1,2,3,4-tetrahydro-1-isoquinolinyl)methyl]-1-piperidinecarboxamide], the “FLIPR Ca2+ AUC” value is 10498. The concentration giving a half-maximal response (EC50) under setting [1] worked out at 2.77 µM.
Taken in the same sequence, the figures for `O=C(NCC1c2ccccc2CCN1S(=O)(=O)c1ccc(Br)cc1OC(F)(F)F)N1CCCC1` (centres unmarked) [Compound 26, N-[(2-{[4-Bromo-2-(trifluoromethoxy)phenyl]sulfonyl}-1,2,3,4-tetrahydro-1-isoquinolinyl)methyl]-1-pyrrolidinecarboxamide] were 12484 and 4.34 µM.
For `O=C(NCC1c2ccccc2CCN1S(=O)(=O)c1ccc(Br)cc1OC(F)(F)F)C1CCC1` (centres unmarked) [Compound 27, N-[(2-{[4-Bromo-2-(trifluoromethoxy)phenyl]sulfonyl}-1,2,3,4-tetrahydro-1-isoquinolinyl)methyl]cyclobutanecarboxamide], in that order: 13461 and 1.34 µM.

Values taken from US10597378B2 (priority 2017, dated 2020).
